The test system of the assay is NCI-H460. In words: Cytotoxicity against human NCI-H460 cells assessed as cell survival at 0.9 uM measured after 48 hrs by MTT assay. Conditions: read-out: Activity. Type of assay: functional.

Structures are written as SMILES.

3 compounds from ChEMBL document CHEMBL5032514, “Portobelamides A and B and Caciqueamide, Cytotoxic Peptidic Natural Products from a Caldora sp. Marine Cyanobacterium” (2021) can be followed below.

On to `C#CCCC[C@@H]1NC(=O)[C@H](C(C)C)N(C)C(=O)[C@H](COC)N(C)C(=O)[C@H](C(C)C)NC(=O)[C@H](COC)N(C)C(=O)[C@H](C)N(C)C(=O)[C@H](C(C)C)N(C)C(=O)[C@@H]2CCCN2C(=O)[C@H](C(C)C)NC(=O)[C@H]([C@@H](C)CC)N(C)C(=O)[C@H](C(C)C)N(C)C(=O)[C@@H](C(C)C)OC(=O)[C@H]1C`, for which the viability at 0.9 µM turned out to be 97%.

For the compound `C#CCCC[C@@H]1NC(=O)[C@H](C(C)C)N(C)C(=O)[C@H](C)N(C)C(=O)[C@H](COC)NC(=O)[C@H](C(C)C)N(C)C(=O)[C@H](CC(C)C)N(C)C(=O)[C@@H]2CCCN2C(=O)[C@H](C(C)C)NC(=O)[C@H](COC)N(C)C(=O)[C@H](C(C)C)NC(=O)[C@@H](C(C)C)OC(=O)[C@H]1C`, the viability at 0.9 µM worked out at 33%.

`C/C=C(\NC(=O)C(NC(=O)C(C)C(O)CCCCCCCCCCCCC(=O)CCCC)C(C)O)C(=O)NC(C)c1nc(C(=O)NC(C)C(C)=O)cs1` (stereo not drawn): the viability at 0.9 µM was found to be 78%.
